In patent publication US20130065818A1, “Arylamide Compounds And Compositions And Uses Thereof” (POLYMEDIX, priority 2006, published 2013):
In brackets after ≈: the same amount, converted by molar mass. Read-outs that look alike come from different tables or passages of the source.

Key:
[1] = system: Serratia marcescens; test: MIC, 25 ocular isolates, broth microdilution (Example 8); type: cell-based
Description: (§1) • Mueller-Hinton Broth in tubes was inoculated with 25 ocular isolates of Staphylococcus aureus fluoroquinolone-susceptible, Staphylococcus aureus fluoroquinolone-resistant, Staphylococcus epidermidis (Coagulase-negative Staphylococcus) fluoroquinolone-susceptible, Staphylococcus epidermidis (Coagulase-negative Staphylococcus) fluoroquinolone-resistant, Pseudomonas aeruginosa and Serratia marcescens, plus two controls (Staphylococcus aureus and E. coli) and incubated at 37° C. overnight on a shaker set at 250 rpm.
(§2) On the day of testing, a 640 μg/ml (1280 μg/ml for Serratia marcescens and Pseudomonas aeruginosa) concentration was prepared from a 1% stock solution in 0.01% acetic acid, 0.2% BSA in polypropylene tubes.
(§3) Serial doubling dilutions in 0.01% acetic acid, 0.2% BSA in 96 well polypropylene plates, which are used as reservoirs for the inoculation of the test plates, were carried out to obtain serial dilutions of test agents at 10 times the required test concentrations: 640, 320, 160, 80, 40, 20, 10, 5, 2.5, 1.25, and 0.625 μg/ml (1280, 640, 320, 160, 80, 40, 20, 10, 5, 2.5, and 1.25 μg/ml for Serratia marcescens and Pseudomonas aeruginosa).
(§4) Ten μl of diluted 10×test agents was added to each well of one row of the 96 well polypropylene plates from column 2 to column 12 (column 1 is a control for bacteria alone, with no peptide). Test agent concentrations in columns 2-12 were as follows: 64, 32, 16, 8, 4, 2, 1, 0.5, 0.25, 0.125, and 0.0625 μg/ml (128, 64, 32, 16, 8, 4, 2, 1, 0.5, 0.25, and 0.125 μg/ml for Serratia marcescens and Pseudomonas aeruginosa). The same peptide was in each of the 8 rows. One plate contained dilutions of one test agent and 8 bacterial isolates.
(§5) On the day of testing, the overnight bacterial broth cultures of Staphylococcus aureus fluoroquinolone-susceptible, Staphylococcus aureus fluoroquinolone-resistant, Staphylococcus epidermidis (Coagulase-negative Staphylococcus) fluoroquinolone-susceptible, Staphylococcus epidermidis (Coagulase-negative Staphylococcus) fluoroquinolone-resistant, Serratia marcescens, and Pseudomonas aeruginosa, plus two controls (Staphylococcus aureus and E. coli) were diluted in 5 ml of trypticase soy broth to yield turbidity equal to a 0.5 McFarland standard. The final inoculum for MIC testing for Staphylococcus aureus fluoroquinolone-susceptible, Staphylococcus aureus fluoroquinolone-resistant, Staphylococcus epidermidis (Coagulase-negative Staphylococcus) fluoroquinolone-susceptible, Staphylococcus epidermidis (Coagulase-negative Staphylococcus) fluoroquinolone-resistant, Serratia marcescens, and Pseudomonas aeruginosa was achieved by placing 0.05 ml of the turbidity adjusted sample to 5 ml of Mueller-Hinton broth.
(§6) Ninety μl of the bacterial suspensions was dispensed in each well from column 1 to column 12. Each bacterial isolate was placed in one row of a 96 well polypropylene plate containing the test agents. The plates were placed on shaker at 15 minutes at room temperature, and then incubated at 37° C. overnight. MICs were determined visually as the lowest concentration of drug that inhibits visible bacterial growth.

[2] = system: Staphylococcus epidermidis (Coagulase-negative Staphylococcus) fluoroquinolone-resistant; test: as above; type: cell-based
Description: as §1, §2, §3, §4, §5, §6

SMILES: N=C(N)NCCCCC(=O)Nc1cc(C(F)(F)F)cc(NC(=O)c2cc(C(=O)Nc3cc(C(F)(F)F)cc(NC(=O)CCCCNC(=N)N)c3O[C@@H]3CCNC3)ncn2)c1O[C@@H]1CCNC1 [Oligomer 4]
- MIC50 ([1]; 25 isolates, Row 13, >128 was Replaced with 256): 8 µg/mL (≈ 8.54 µM)
- MIC90 ([1]; 25 isolates, Row 22, >128 was Replaced with 256): 32 µg/mL (≈ 34.2 µM)
- Range of MICs ([1]; 25 isolates, Summary of Results, >128 was Replaced with 256): 0.25 to 32 µg/mL
- MIC ([1]; Serratia marcescens, 25 ocular isolates, read-out: Median MIC): 8 µg/mL (≈ 8.54 µM)
- MIC ([1]; Serratia marcescens, isolate 1—K1681, read-out: MIC): 32 µg/mL (≈ 34.2 µM)
- MIC ([1]; Serratia marcescens, isolate 2—K1674, read-out: MIC): 32 µg/mL (≈ 34.2 µM)
- MIC ([1]; Serratia marcescens, isolate 3—K1558, read-out: MIC): 4 µg/mL (≈ 4.27 µM)
- MIC ([1]; Serratia marcescens, isolate 4—K1538, read-out: MIC): 16 µg/mL (≈ 17.1 µM)
- MIC ([1]; Serratia marcescens, isolate 5—K1503, read-out: MIC): 32 µg/mL (≈ 34.2 µM)
- MIC ([1]; Serratia marcescens, isolate 6—K1216, read-out: MIC): 4 µg/mL (≈ 4.27 µM)
- MIC ([1]; Serratia marcescens, isolate 7—K1496, read-out: MIC): 8 µg/mL (≈ 8.54 µM)
- MIC ([1]; Serratia marcescens, isolate 8—K1481, read-out: MIC): 2 µg/mL (≈ 2.13 µM)
- MIC ([1]; Serratia marcescens, isolate 9—K1470, read-out: MIC): 32 µg/mL (≈ 34.2 µM)
- MIC ([1]; Serratia marcescens, isolate 10—K1468, read-out: MIC): 2 µg/mL (≈ 2.13 µM)
- MIC ([1]; Serratia marcescens, isolate 11—K1467, read-out: MIC): 32 µg/mL (≈ 34.2 µM)
- MIC ([1]; Serratia marcescens, isolate 12—K1462, read-out: MIC): 16 µg/mL (≈ 17.1 µM)
- MIC ([1]; Serratia marcescens, isolate 13—K1461, read-out: MIC): 8 µg/mL (≈ 8.54 µM)
- MIC ([1]; Serratia marcescens, isolate 14—K1413, read-out: MIC): 16 µg/mL (≈ 17.1 µM)
- MIC ([1]; Serratia marcescens, isolate 15—K1402, read-out: MIC): 0.25 µg/mL (≈ 0.267 µM)
- MIC ([1]; Serratia marcescens, isolate 16—K1357, read-out: MIC): 1 µg/mL (≈ 1.07 µM)
- MIC ([1]; Serratia marcescens, isolate 17—K1351, read-out: MIC): 0.5 µg/mL (≈ 0.534 µM)
- MIC ([1]; Serratia marcescens, isolate 18—K1327, read-out: MIC): 8 µg/mL (≈ 8.54 µM)
- MIC ([1]; Serratia marcescens, isolate 19—K1321, read-out: MIC): 8 µg/mL (≈ 8.54 µM)
- MIC ([1]; Serratia marcescens, isolate 20—K1315, read-out: MIC): 16 µg/mL (≈ 17.1 µM)
- MIC ([1]; Serratia marcescens, isolate 21—K1306, read-out: MIC): 8 µg/mL (≈ 8.54 µM)
- MIC ([1]; Serratia marcescens, isolate 22—K1290, read-out: MIC): 8 µg/mL (≈ 8.54 µM)
- MIC ([1]; Serratia marcescens, isolate 23—K1265, read-out: MIC): 8 µg/mL (≈ 8.54 µM)
- MIC ([1]; Serratia marcescens, isolate 24—K1263, read-out: MIC): 8 µg/mL (≈ 8.54 µM)
- MIC ([1]; Serratia marcescens, isolate 25—K1239, read-out: MIC): 8 µg/mL (≈ 8.54 µM)
- MIC ([1]; Serratia marcescens, n=25 per group, read-out: Median MIC): 8 µg/mL (≈ 8.54 µM)
- MIC50 ([1]; Serratia marcescens, 25 isolates, Summary of Results, >128 was Replaced with 256, read-out: MIC50): 8 µg/mL (≈ 8.54 µM)
- MIC90 ([1]; Serratia marcescens, 25 isolates, Summary of Results, >128 was Replaced with 256, read-out: MIC90): 32 µg/mL (≈ 34.2 µM)
- MIC ([1]; Serratia marcescens, 25 isolates, Summary of Results, >128 was Replaced with 256, read-out: Median MIC): 8 µg/mL (≈ 8.54 µM)
- MIC50 ([1]; n=25 per group): 8 µg/mL (≈ 8.54 µM)
- MIC90 ([1]; n=25 per group): 32 µg/mL (≈ 34.2 µM)
- Range of MICs ([1]; n=25 per group): 0.25 to 32 µg/mL
- MIC, sorted list for MIC50 and MIC90 Determinations (QRSE-A) ([2]; 25 isolates sorted ascending, Row 1-25, <0.0625 was Replaced with 0.03125): 0.25 µg/mL
- MIC50 ([2]; 25 isolates, Row 13): 0.125 µg/mL (≈ 0.133 µM)
- MIC90 ([2]; 25 isolates, Row 22): 0.25 µg/mL (≈ 0.267 µM)
- Range of MICs ([2]; 25 isolates, Summary of Results, <0.0625 was Replaced with 0.03125): 0.03125 to 0.25 µg/mL
- MIC ([2]; Staphylococcus epidermidis, 25 ocular isolates, read-out: Median MIC): ≤ 0.25 µg/mL
- MIC ([2]; Staphylococcus epidermidis, isolate 1—E515, read-out: MIC): 0.125 µg/mL (≈ 0.133 µM)
- MIC ([2]; Staphylococcus epidermidis, isolate 2—E514, read-out: MIC): < 0.0625 µg/mL
- MIC ([2]; Staphylococcus epidermidis, isolate 3—E513, read-out: MIC): 0.125 µg/mL (≈ 0.133 µM)
- MIC ([2]; Staphylococcus epidermidis, isolate 4—E510, read-out: MIC): < 0.0625 µg/mL
- MIC ([2]; Staphylococcus epidermidis, isolate 5—E509, read-out: MIC): 0.125 µg/mL (≈ 0.133 µM)
- MIC ([2]; Staphylococcus epidermidis, isolate 6—E508, read-out: MIC): 0.125 µg/mL (≈ 0.133 µM)
- MIC ([2]; Staphylococcus epidermidis, isolate 7—E505, read-out: MIC): 0.125 µg/mL (≈ 0.133 µM)
- MIC ([2]; Staphylococcus epidermidis, isolate 8—E503, read-out: MIC): 0.125 µg/mL (≈ 0.133 µM)
- MIC ([2]; Staphylococcus epidermidis, isolate 9—E502, read-out: MIC): 0.125 µg/mL (≈ 0.133 µM)
- MIC ([2]; Staphylococcus epidermidis, isolate 10—E499, read-out: MIC): 0.125 µg/mL (≈ 0.133 µM)
- MIC ([2]; Staphylococcus epidermidis, isolate 11—E498, read-out: MIC): 0.125 µg/mL (≈ 0.133 µM)
- MIC ([2]; Staphylococcus epidermidis, isolate 12—E494, read-out: MIC): < 0.0625 µg/mL
- MIC ([2]; Staphylococcus epidermidis, isolate 13—E493, read-out: MIC): 0.125 µg/mL (≈ 0.133 µM)
- MIC ([2]; Staphylococcus epidermidis, isolate 14—E485, read-out: MIC): 0.125 µg/mL (≈ 0.133 µM)
- MIC ([2]; Staphylococcus epidermidis, isolate 15—E487, read-out: MIC): 0.125 µg/mL (≈ 0.133 µM)
- MIC ([2]; Staphylococcus epidermidis, isolate 16—E486, read-out: MIC): < 0.0625 µg/mL
- MIC ([2]; Staphylococcus epidermidis, isolate 17—E480, read-out: MIC): 0.125 µg/mL (≈ 0.133 µM)
- MIC ([2]; Staphylococcus epidermidis, isolate 18—E475, read-out: MIC): 0.25 µg/mL (≈ 0.267 µM)
- MIC ([2]; Staphylococcus epidermidis, isolate 19—E471, read-out: MIC): 0.125 µg/mL (≈ 0.133 µM)
- MIC ([2]; Staphylococcus epidermidis, isolate 20—E458, read-out: MIC): 0.125 µg/mL (≈ 0.133 µM)
- MIC ([2]; Staphylococcus epidermidis, isolate 21—E452, read-out: MIC): 0.25 µg/mL (≈ 0.267 µM)
- MIC ([2]; Staphylococcus epidermidis, isolate 22—E450, read-out: MIC): 0.125 µg/mL (≈ 0.133 µM)
- MIC ([2]; Staphylococcus epidermidis, isolate 23—E440, read-out: MIC): 0.25 µg/mL (≈ 0.267 µM)
- MIC ([2]; Staphylococcus epidermidis, isolate 24—E446, read-out: MIC): 0.125 µg/mL (≈ 0.133 µM)
- MIC ([2]; Staphylococcus epidermidis, isolate 25—E444, read-out: MIC): 0.25 µg/mL (≈ 0.267 µM)
- MIC ([2]; Staphylococcus epidermidis, n=25 per group, read-out: Median MIC): 0.125 µg/mL (≈ 0.133 µM)
- MIC50 ([2]; Staphylococcus epidermidis, 25 isolates, Summary of Results, read-out: MIC50): 0.125 µg/mL (≈ 0.133 µM)
- MIC90 ([2]; Staphylococcus epidermidis, 25 isolates, Summary of Results, read-out: MIC90): 0.25 µg/mL (≈ 0.267 µM)
- MIC ([2]; Staphylococcus epidermidis, 25 isolates, Summary of Results, read-out: Median MIC): 0.125 µg/mL (≈ 0.133 µM)
- MIC50 ([2]; n=25 per group): 0.125 µg/mL (≈ 0.133 µM)
- MIC90 ([2]; n=25 per group): 0.25 µg/mL (≈ 0.267 µM)
- Range of MICs ([2]; n=25 per group): 0.03125 to 0.25 µg/mL
